Like-named read-outs stand apart in the source and are kept apart here.
Legend:
rabbit = experiment: Draize method, ocular irritation; format: in vivo; details: for Draize score Ocular irritation: Table 1, Conc. of test substance 0.5%; for Actual evaluation: Table 3, Draize ocular irritation score used for the regression; for Found value: Table 4, measurements according to the Draize method
Description: The assay and evaluation as to whether or not a foreign substance gives harmful irritation to a living body which induces vital reactions, for example, inflammation, hemolysis, opacification, and swelling, are essential in the product development in the technical fields of cosmetics, medicines, and other medical materials and oleo chemicals where a particular substance is directly applied to the living body At the present time, experimental animals are mainly used for these assay and evaluation. In the tests, particularly in irritation tests, use is made of a skin irritation test (primary irritation and accumulating irritation), an ocular irritation test, a patch test, and a mucous membrane irritation test (tunica mucosa oris and urogenital mucosa membrane). For example, in the ocular irritation test, the Draize method, which uses a rabbit, is generally adopted. In this method, the ocular irritation by a test substance is assayed particularly through (1) the determination of the degree of clouding of the cornea, (2) the evaluation of the incidence of congestion or edema of the conjunctiva, and (3) the evaluation of the incidence of congestion or swelling of the iris.
The same test substance as that used above was subjected to a test according to the Draize method.

[1] = Estimate of Draize score by regression of HDR values (Example 3); details: Draize score estimated by 17.61 + 0.624 1% HDR + 0.481 0.016% HDR
Description: The results thus obtained were subjected to regression using the following associative equation to obtain the above-described correlation coefficient. 17.61 + 0.624 1% HDR + 0.481 0.016% HDR [formula] Consequently, a very good correspondence was observed even with evaluation by a plurality of concentrations.

[2] = Estimate of Draize score by regression of RBC and HDR values (Example 4); details: estimated value based on the Draize method using the associative equation with RBC, 2% HDR, 0.25% HDR, 0.063% HDR
Description: • Method 1: The procedure as described in Example 1 was repeated. • Method 2: The procedure as described in Example 2 was repeated.
The results obtained from the two methods were subjected to regression using the associative equation below: […]
Here, the calculated values are estimated values based on the Draize method using the above-described associative equation, and the found values are measurements according to the Draize method.

[3] = Table 1, Conc. of test substance 0.5%

Compound	Draize score Primary ocular irritation (in vivo)	Draize score Primary skin irritation (in vivo)	Draize score Ocular irritation (rabbit)	Actual evaluation (rabbit)	Found value (rabbit)	Estimated value [1]	Draize score Primary ocular irritation [3]	Calculated value [2]
CCCCCCCCCCCCCCCC[n+]1ccccc1 [Cetyl pyridinium chloride]	4.0	4.0	70	70.000	35			
CCCCCCCCOc1ccccc1 [Octyl phenyl ether]			8.7	3.700	8.7	17.610	0.2	6.9685
CCCCCCCCCCCCOS(=O)(=O)[O-].[Na+] [SDS, sodium dodecylsulfate]			35.1	35.100	70	43.331	6.9	70.5078

Reference: patent EP0600087A1, “METHOD AND KIT OF IN VITRO IRRITATION TEST” (priority 1991, dated 1993)
